Laboratory results reported in ChEMBL document CHEMBL1795257, “Synthesis of new opioid derivatives with a propellane skeleton and their pharmacology: part 1” (Bioorg Med Chem Lett, 2011).
pKi: −log10 of the molar value. Calls of active or inactive are those of the source. The rule behind the calls is not given here.

Columns and labels:
[1] = target: Kappa-type opioid receptor (Cavia porcellus, UniProt P41144); assay: Displacement of [3H]U69593 from kappa opioid receptor in guinea pig cerebellum homogenate by scintillation counting; assay type: tissue-based
Sequence of Kappa-type opioid receptor (P41144 whole entry): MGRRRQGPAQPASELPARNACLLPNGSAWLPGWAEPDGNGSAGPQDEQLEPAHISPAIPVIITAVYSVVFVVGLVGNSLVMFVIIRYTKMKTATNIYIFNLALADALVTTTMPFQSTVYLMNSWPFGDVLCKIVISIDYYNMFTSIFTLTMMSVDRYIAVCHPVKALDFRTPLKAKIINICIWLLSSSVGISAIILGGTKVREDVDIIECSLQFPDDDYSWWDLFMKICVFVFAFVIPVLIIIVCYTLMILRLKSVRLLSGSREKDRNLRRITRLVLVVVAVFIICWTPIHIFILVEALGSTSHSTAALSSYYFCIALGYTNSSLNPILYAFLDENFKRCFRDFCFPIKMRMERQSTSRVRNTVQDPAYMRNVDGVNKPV

[2] = Displacement of [3H]NTI from delta opioid receptor in guinea pig forebrain homogenate by scintillation counting; assay type: tissue-based, Cavia porcellus, Brain
Mu-type opioid receptor = Mu-type opioid receptor (Cavia porcellus, UniProt P97266); assay: Displacement of [3H]DAMGO from mu opioid receptor in guinea pig forebrain homogenate by scintillation counting; assay type: tissue-based, Brain
Sequence of Mu-type opioid receptor (P97266 whole entry): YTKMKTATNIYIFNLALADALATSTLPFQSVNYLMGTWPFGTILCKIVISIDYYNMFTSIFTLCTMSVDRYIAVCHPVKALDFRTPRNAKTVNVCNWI

Cavia porcellus = species: Cavia porcellus; assay: Selectivity ratio of Ki for delta opioid receptor in guinea pig forebrain homogenate to Ki for kappa opioid receptor in guinea pig cerebellum homogenate; assay type: tissue-based
Mus musculus [3] = assay: Antinociceptive activity in sc dosed mouse assessed as inhibition of acetic acid-induced writhing in presence of mu opioid […] naloxone; assay type: functional, organism-based
Mus musculus [4] = assay: Antinociceptive activity in sc dosed mouse assessed as inhibition of acetic acid-induced writhing in presence of kappa opioid antagonist nor-BNI; assay type: functional, organism-based
Mus musculus [5] = assay: Antinociceptive activity in sc dosed mouse assessed as inhibition of acetic acid-induced writhing; assay type: functional

In the case of `Oc1ccc2c3c1OC1C4(O)CC[C@@]5(OC4)[C@@H](C2)N(CC2CC2)CC[C@]315` (some centres undefined), the pKi [1] was 9.47, the pKi [2] was 7.99 and the pKi (Mu-type opioid receptor) was 9.80. For the same compound, the Ratio Ki (Cavia porcellus) was 30.
With `O=C1CCC23Cc4ccc(O)cc4C2(CCN(CC2CC2)C3)C1` (centres undefined) the pKi [1] was 7.76, the Activity (Mus musculus [3]) was “inactive” and the pKi [2] was 6.35. For the same compound, the Activity (Mus musculus [4]) was “inactive”, the ED50 (Mus musculus [5]) was 0.86 mg/kg and the pKi (Mu-type opioid receptor) was 7.24. For the same compound, the Ratio Ki (Cavia porcellus) was 26.
For `O=C1CC23CCN(CC4CC4)C(Cc4ccc(O)cc42)C32CCC1O2` (centres undefined), the Ratio Ki (Cavia porcellus) was 30.
For `O=C1CCC23Cc4ccc(O)cc4C2(CCN(CC2(O)CC2)C3)C1` (centres undefined), the pKi [1] was 7.66, the pKi [2] was 6.30 and the pKi (Mu-type opioid receptor) was 7.11. The Ratio Ki (Cavia porcellus) was 23.
`O=C1CC[C@@]2(O)[C@H]3Cc4ccc(O)cc4[C@@]2(CCN3CC2CC2)C1` showed a pKi [1] of 10.42, a pKi [2] of 8.74 and a pKi (Mu-type opioid receptor) of 9.85. It also gave a Ratio Ki (Cavia porcellus) of 48.
In the case of `CCC12CCN(CC3(O)CC3)[C@H](Cc3ccc(O)cc31)C2(C)C`, the pKi [2] was 9.05 and the pKi (Mu-type opioid receptor) was 9.70.
`OCC12CC[C@@]3(O1)[C@H]1Cc4ccc(O)cc4[C@@]3(CCN1CC1CC1)C2` gave a Ratio Ki (Cavia porcellus) of 35.
`CN1CCC23CC(=O)CCC2(Cc2ccc(O)cc23)C1` (centres undefined) gave a pKi [1] of 6.59, a pKi [2] of 6.36 and a pKi (Mu-type opioid receptor) of 8.44. It also gave a Ratio Ki (Cavia porcellus) of 1.7.
`O=C1CC[C@@]2(O)[C@H]3Cc4ccc(O)c5c4[C@@]2(CCN3CC2CC2)[C@H]1O5` gave a Ratio Ki (Cavia porcellus) of 56.
For `CN1CC[C@]23c4c5ccc(O)c4O[C@H]2C(=O)CC[C@@]3(O)[C@H]1C5` [OXYMORPHONE], the pKi [2] was 7.37.
In the case of `CC(C)=CCN1CC[C@@]2(C)c3cc(O)ccc3C[C@@H]1[C@@H]2C`, the pKi [1] was 8.44, the pKi [2] was 7.64 and the pKi (Mu-type opioid receptor) was 8.34. The Ratio Ki (Cavia porcellus) was 6.4.
In the case of `CN1CC[C@]23c4c5ccc(O)c4O[C@H]2[C@@H](O)C=C[C@H]3[C@H]1C5`, the Activity (Mus musculus [5]) was “Active”.
